The values that follow come from paper PMC5766581, “NF-κB inducing kinase is a therapeutic target for systemic lupus erythematosus” (Nature Communications, 2018).

Entries after “also recorded” stand apart in the source; their conditions may differ. Bounds are passed on as bounds.

The test system of test [1] is human B cells. The test is described as follows: BAFF B cell survival assay (Cell Titer Glo). Format: cell-based. The protocol: Human B cells were isolated using Miltenyi Human B cell isolation kit following ficoll separation of buffy coats. […] Mouse B cells were isolated from mouse spleen using Miltenyi mouse B cell isolation kit II. Cells were plated in Co-star 96-well plates at either 50,000 cells/well for the survival assays or at 150,000 cells/well for the proliferation assays. Compounds diluted in DMSO (final DMSO assay concentration = 0.1%) were added to the cells. The cells were incubated with compound for one hour at 37 °C. Stimulus was then added to the plates and survival or proliferation was measured after four days. For the proliferation assays, cells were treated with either Anti-IgM (20 μg/mL) or rhCD40L (10 μg/mL; R&D) or anti-mouse CD40 (100 ng/mL). Proliferation was measured using thymidine incorporation on day four. For the BAFF survival assay, cells were treated with human or mouse rBAFF (R&D Systems) at 10 ng/ml followed by Cell Titer Glo (Promega) to measure survival on day four.
In general terms: In ATP-based viability assays light output follows the ATP content of the culture.

Test [2] relates to human B cells. The test is described as follows: Human B cell anti-IgM proliferation assay. Format: cell-based. Particulars: Homo sapiens, B-cell; thymidine incorporation, day four. A general note: Incorporation of labelled thymidine or its analogues reports DNA synthesis.
The test system of test [3] is C57BL/6 mice. The test is described as follows: Seven-day in vivo B cell survival model. Also on record: species or system mouse.
For test [4], the system named is C57BL/6 mice. The test is described as follows: Delayed-type hypersensitivity model. It is filed as in vivo, mouse. Particulars: 200 mg/kg BID P.O. The protocol:
Mice were immunized with OVA (100 μg, SC) (Sigma) in complete Freund’s adjuvant (Spectrum Chemicals and Laboratory Products) on day 0 and then challenged again with OVA (10 μg in PBS, SC right ear) on day 6. Ear thickness was measured by calipers, and unchallenged ear thickness was subtracted from OVA challenged ear thickness after 24 and 44 h. […] Investigators were not blinded to experimental samples.

The next test has as its system FVB mice. The test is described as follows: Imiquimod-induced FVB mouse lupus model. It is filed as in vivo. The following applies: 200 mg/kg P.O. BID; Imiquimod treated FVB mice. How it is done:
Age-matched female FVB mice were purchased from Jackson Laboratory and randomized into experimental groups upon receipt. Ten-week-old female FVB mice were treated with 10 mg of 5% Imiquimod cream (Taro Pharmaceuticals, USA, Hawthorne, N.Y.) applied to the left ear (three doses per week for the duration of the study). […] Proteinuria and survival were tracked through day 91. Plasma PK measurement was done at day 85 prior to the end of the study.

In a further test the target is T1, DMPK (Homo sapiens, UniProt Q09013).
T1 construct: purchased Invitrogen / ThermoFisher SelectScreen
The test is described as follows: SelectScreen kinase panel. Format: binding. How it is done:
(§1) The ability of NIK to catalyze the hydrolysis of adenosine-5′-triphosphate (ATP) was monitored using the Transcreener ADP (adenosine-5′-diphosphate) assay (Bell Brook Labs, Fitchburg, WI). Purified human NIK kinase domain (a.a. 340–694) (0.5 nM) or mouse NIK kinase domain (a.a. 329–675) (1 nM) derived from a baculovirus-infected insect cell expression system was incubated with test compounds for 0.5–2 h in 50 mM HEPES buffer (pH 7.2) containing 10 mM MgCl2, 2 mM dithiothreitol, 10 μM ATP, 0.01% Triton X-100, 0.1% gamma-globulins from bovine blood, 1% dimethylsulfoxide (DMSO), 7 μg/mL ADP antibody and 5 nM ADP-MR121 633 tracer. Reactions were quenched by the addition of 20 mM EDTA and 0.01% Brij 35. The tracer bound to the antibody was displaced by the ADP generated during the NIK reaction, which caused a decrease in fluorescence polarization that was measured by laser excitation at 633 nm with a Fluorescence Correlation Spectroscopy Plus reader (Evotec AG). Equilibrium dissociation constant (Ki) values for NIK inhibitors are calculated from plots of activity vs. inhibitor concentration using Morrison’s quadratic equation that accounts for the potential of tight binding, and by also applying the conversion factor that accounted for competitive inhibition and the concentration of substrate used in the assay relative to its Michaelis constant (Km). The Ki values with hPKD1 (PKCμ) were determined using the same assay conditions as for NIK. Ki measurements for hKHS1 and hLRRK2, as well as broad kinase selectivity profiling for SMI1, were carried out by Invitrogen using their SelectScreen kinase assay panel (ThermoFisher Scientific, Madison, WI). The vendor offered two types of kinase activity assays, a peptide phosphorylation assay (Z′-LYTE) and an ADP quantitation assay (Adapta), as well as one type of kinase ATP site competitive binding assay (LanthaScreen). See vendor web site for technology and protocol details for each specific kinase assay.
(§2) The average % Inhibition of each kinase is reported (Supplementary Table 1).

In the next test the target is T2, MEKK2 (Homo sapiens, UniProt Q9Y2U5).
T2 construct: purchased Invitrogen / ThermoFisher SelectScreen
The test is described as follows: SelectScreen kinase panel. It is filed as binding. The protocol: as §1, §2

A further test addresses T3, MYLK (Homo sapiens, UniProt Q15746).
T3 construct: purchased Invitrogen / ThermoFisher SelectScreen
The test is described as follows: SelectScreen kinase panel. It is filed as binding. The protocol: as §1, §2

A further test concerns the target T4, TAK1-TAB1 (Homo sapiens, UniProt O43318).
T4 construct: purchased Invitrogen / ThermoFisher SelectScreen
The test is described as follows: SelectScreen kinase panel. It is filed as binding. How it is done: as §1, §2

The target in another test is T5, TNK2 (Homo sapiens, UniProt Q07912).
T5 construct: purchased Invitrogen / ThermoFisher SelectScreen
The test is described as follows: SelectScreen kinase panel. It is filed as binding. How it is done: as §1, §2

Another test addresses T6, CDK5/p25 (Homo sapiens, UniProt Q00535).
T6 construct: purchased Invitrogen / ThermoFisher SelectScreen
The test is described as follows: SelectScreen kinase panel. Format: biochemical.

T2 sequence (Q9Y2U5 whole entry): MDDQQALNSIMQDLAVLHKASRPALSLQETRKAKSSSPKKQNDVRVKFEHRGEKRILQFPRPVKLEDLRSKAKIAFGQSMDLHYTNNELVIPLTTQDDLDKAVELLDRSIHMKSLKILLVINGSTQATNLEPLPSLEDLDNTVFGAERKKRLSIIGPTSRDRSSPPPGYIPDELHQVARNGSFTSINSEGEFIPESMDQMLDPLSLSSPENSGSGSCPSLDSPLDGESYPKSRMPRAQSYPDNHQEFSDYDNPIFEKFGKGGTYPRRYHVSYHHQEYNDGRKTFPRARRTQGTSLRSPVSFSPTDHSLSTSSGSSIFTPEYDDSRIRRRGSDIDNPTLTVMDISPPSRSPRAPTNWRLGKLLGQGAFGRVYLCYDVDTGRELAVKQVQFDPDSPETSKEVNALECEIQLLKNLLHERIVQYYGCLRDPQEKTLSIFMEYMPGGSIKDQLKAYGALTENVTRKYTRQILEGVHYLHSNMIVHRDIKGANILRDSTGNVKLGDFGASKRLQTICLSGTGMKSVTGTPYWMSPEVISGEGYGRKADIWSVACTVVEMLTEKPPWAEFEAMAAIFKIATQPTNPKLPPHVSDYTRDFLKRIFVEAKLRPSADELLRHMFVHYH
T3 sequence (Q15746 whole entry): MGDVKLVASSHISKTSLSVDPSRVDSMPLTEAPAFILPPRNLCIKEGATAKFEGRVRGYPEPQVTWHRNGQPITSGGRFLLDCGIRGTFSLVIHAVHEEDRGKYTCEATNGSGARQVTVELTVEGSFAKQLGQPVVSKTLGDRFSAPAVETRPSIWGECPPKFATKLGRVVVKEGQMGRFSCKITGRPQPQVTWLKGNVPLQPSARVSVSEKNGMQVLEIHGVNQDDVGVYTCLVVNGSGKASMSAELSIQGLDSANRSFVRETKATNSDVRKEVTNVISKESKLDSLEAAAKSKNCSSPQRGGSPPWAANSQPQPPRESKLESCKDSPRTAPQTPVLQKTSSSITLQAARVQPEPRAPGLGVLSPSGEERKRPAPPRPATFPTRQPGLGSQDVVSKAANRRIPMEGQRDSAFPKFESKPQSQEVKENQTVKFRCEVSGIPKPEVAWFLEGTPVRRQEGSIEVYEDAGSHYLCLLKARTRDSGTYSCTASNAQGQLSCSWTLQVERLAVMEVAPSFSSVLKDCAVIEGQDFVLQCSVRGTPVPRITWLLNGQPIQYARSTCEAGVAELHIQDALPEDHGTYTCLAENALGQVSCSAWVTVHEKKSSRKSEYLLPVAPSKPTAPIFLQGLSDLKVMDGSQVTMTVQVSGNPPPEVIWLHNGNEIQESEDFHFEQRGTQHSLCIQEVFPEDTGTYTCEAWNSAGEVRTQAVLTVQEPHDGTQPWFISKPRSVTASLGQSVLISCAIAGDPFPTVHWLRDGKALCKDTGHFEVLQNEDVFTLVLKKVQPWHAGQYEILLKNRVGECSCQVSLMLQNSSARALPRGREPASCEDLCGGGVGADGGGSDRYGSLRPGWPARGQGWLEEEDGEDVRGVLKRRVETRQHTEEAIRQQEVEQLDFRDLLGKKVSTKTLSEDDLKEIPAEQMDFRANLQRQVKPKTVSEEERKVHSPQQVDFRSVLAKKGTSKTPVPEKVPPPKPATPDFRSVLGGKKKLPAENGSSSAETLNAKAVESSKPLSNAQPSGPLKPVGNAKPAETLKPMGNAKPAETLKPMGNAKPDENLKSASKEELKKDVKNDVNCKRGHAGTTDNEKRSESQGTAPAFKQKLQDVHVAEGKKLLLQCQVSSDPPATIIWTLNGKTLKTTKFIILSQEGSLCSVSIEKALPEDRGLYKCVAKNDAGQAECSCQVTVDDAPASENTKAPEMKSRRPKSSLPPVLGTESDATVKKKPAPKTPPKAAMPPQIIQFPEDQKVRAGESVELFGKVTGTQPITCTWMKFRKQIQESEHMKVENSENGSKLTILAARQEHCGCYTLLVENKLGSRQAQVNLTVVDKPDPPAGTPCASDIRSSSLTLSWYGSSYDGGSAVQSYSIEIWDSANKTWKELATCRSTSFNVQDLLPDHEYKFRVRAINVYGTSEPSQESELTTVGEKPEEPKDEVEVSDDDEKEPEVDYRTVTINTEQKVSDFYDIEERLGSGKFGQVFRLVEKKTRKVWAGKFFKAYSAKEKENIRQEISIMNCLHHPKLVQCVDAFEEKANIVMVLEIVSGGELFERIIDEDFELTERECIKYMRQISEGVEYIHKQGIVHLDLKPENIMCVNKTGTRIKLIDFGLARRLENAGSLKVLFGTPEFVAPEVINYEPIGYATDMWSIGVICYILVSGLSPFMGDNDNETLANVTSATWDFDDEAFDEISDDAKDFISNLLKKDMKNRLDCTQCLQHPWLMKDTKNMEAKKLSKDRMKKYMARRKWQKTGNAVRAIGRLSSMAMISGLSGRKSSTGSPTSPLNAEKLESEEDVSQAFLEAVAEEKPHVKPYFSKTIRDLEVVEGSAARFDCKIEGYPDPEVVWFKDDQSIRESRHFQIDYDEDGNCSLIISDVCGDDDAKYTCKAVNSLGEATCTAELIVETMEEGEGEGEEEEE
T5 sequence (Q07912 whole entry): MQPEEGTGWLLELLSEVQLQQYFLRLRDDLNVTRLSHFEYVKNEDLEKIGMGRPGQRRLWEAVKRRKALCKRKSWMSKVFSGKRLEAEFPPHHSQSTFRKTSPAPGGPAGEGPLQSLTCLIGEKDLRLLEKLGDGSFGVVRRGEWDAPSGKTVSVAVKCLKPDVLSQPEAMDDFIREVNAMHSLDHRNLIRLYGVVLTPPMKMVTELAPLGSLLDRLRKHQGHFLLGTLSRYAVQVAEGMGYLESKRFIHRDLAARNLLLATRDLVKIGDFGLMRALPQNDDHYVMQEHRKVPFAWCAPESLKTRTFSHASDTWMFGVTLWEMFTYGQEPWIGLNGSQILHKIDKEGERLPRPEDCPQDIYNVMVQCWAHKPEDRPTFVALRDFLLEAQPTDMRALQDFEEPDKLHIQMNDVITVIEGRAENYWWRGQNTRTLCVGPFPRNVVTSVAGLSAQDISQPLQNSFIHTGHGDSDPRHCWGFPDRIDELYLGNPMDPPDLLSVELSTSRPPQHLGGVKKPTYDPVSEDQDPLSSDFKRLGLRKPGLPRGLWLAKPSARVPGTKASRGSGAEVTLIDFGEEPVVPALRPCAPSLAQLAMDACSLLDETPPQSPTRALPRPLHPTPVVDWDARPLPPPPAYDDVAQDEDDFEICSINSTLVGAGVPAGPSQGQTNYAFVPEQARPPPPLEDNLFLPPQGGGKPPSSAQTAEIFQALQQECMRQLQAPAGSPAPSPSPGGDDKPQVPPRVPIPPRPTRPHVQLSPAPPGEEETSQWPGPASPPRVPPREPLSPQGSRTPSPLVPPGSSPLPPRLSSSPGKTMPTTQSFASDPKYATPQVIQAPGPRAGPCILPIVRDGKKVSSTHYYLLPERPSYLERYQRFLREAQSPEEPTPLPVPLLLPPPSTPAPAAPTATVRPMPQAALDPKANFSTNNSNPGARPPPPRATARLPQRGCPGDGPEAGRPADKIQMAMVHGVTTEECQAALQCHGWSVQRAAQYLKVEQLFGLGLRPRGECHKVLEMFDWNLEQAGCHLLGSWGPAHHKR
T1 sequence (Q09013 whole entry): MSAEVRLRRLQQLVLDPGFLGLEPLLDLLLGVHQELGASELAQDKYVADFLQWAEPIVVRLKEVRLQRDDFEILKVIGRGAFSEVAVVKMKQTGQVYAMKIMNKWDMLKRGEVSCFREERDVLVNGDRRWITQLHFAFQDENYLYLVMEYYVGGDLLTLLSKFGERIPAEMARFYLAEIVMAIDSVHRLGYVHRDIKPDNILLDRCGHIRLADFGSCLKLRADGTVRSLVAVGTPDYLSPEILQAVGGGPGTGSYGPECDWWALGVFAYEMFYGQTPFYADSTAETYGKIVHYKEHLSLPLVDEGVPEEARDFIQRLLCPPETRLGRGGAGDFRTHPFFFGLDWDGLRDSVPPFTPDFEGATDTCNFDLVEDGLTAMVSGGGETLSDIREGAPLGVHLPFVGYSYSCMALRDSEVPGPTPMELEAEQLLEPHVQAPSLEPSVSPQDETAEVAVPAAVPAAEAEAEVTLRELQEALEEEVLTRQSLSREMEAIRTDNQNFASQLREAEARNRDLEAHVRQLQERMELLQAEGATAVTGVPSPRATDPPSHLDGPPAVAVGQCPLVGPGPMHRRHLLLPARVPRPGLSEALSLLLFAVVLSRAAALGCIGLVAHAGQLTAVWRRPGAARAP
T4 sequence (O43318 with tags, fused parts or gaps limits assumed): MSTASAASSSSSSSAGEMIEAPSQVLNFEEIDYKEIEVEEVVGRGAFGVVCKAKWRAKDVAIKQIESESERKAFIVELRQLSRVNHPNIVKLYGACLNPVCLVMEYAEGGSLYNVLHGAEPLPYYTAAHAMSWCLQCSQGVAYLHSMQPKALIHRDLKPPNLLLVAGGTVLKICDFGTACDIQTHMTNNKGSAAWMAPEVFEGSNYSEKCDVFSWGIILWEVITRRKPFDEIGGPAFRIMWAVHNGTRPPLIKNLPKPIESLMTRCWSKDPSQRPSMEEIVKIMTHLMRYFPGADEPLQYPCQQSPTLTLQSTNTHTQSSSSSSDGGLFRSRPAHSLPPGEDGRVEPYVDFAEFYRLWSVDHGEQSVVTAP
T6 sequence (Q00535 whole entry): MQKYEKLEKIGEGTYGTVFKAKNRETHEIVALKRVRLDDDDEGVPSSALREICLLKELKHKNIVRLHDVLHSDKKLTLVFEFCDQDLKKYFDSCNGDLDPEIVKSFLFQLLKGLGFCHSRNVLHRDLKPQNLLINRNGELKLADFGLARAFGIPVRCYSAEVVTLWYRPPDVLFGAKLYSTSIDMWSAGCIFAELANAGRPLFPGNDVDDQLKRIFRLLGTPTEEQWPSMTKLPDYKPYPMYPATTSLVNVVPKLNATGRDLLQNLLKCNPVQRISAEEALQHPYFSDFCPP
T6 sequence (Q15078 99-307 partner limits assumed): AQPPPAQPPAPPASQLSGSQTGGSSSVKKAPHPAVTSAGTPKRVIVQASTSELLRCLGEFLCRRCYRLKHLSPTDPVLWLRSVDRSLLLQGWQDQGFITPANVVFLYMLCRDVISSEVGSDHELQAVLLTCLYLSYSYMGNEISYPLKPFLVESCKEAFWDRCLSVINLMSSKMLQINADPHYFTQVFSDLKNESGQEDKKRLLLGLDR

As to `COc1cc(C(N)=O)nc(-c2cccc(C#C[C@]3(O)CCN(C)C3=O)c2)c1` [NIK SMI1], the concentration for half-maximal inhibition (IC50) with human B cells [1] (Homo sapiens, B-cell, BAFF induced, mean ± SD) was 189 nM; in the test with human B cells [2] it was greater than 10 µM. Further, the “BAFF-driven survival of B cells in vitro” value with human B cells [1] (human B cells) was “completely inhibited”. For the same compound, the “splenic cellularity, frequency and absolute numbers of total B2, marginal zone and follicular B cells in the spleen” value in the test with C57BL/6 mice [3] (6-400 mg/kg BID oral, 7 days) was “dose-dependently reduced”. Besides, the “reduction of serum IgA levels” value in the test with C57BL/6 mice [3] (after 1 week of treatment, oral BID) was “approximately 50%”. Further, the “effect in delayed type hypersensitivity study” value in the test with C57BL/6 mice [4] is reported as “partial effect”. Besides, the survival entry with FVB mice was “efficacious; also recorded: improved survival”. In addition, the inhibition at 1 µM was 1.6% at DMPK; 66.8% against MEKK2; 7.5% against MYLK; 31.1% against TAK1-TAB1; 0.1% at TNK2; 2.5% against CDK5/p25.

By IC50 is commonly meant the concentration that inhibits the measured activity by half. A higher IC50 goes with a need for much substance. A word on the inhibition: it is the relative decrease from the control value, in per cent.
